Laboratory results taken from US20230286975A1, “IMPROVED METHOD FOR THE PRODUCTION OF LYSERGIC ACID DIETHYLAMIDE (LSD) AND NOVEL DERIVATIVES THEREOF” (COMPASS […], priority 2020, published 2023).

Assays:
[1] = target: T1, Human recombinant dopamine D2S receptors (Homo sapiens, UniProt P14416); assay: D2S receptor radioligand binding inhibition ([3H]Spiperone); details: for inhibition at 10 µM: screened at 10 μM, mean of two replicates
T1 construct: expressed in transfected cells; host or cells: CHO
Method: (§1) Four novel LSD derivatives according to the present invention (referred to as “Compound 1”, “Compound 2”, “Compound 3”, and “Compound 4”; structures depicted below) were screened at 10 μM at key receptors of interest in order to determine % binding inhibition. Targets were selected due to prior evidence that LSD binds these targets with moderate or high affinities in vitro, as well as their functional significance in the context of human health.
Human recombinant dopamine D2S receptors expressed in CHO cells were used in modified Tris-HCl buffer pH 7.4. A 15 μg aliquot was incubated with 0.16 nM [^3H]Spiperone for 120 minutes at 25° C. Non-specific binding was estimated in the presence of 10 μM haloperidol. Receptors were filtered and washed, the filters were then counted to determine [^3H]Spiperone specifically bound. Test compounds were screened at 10 μM.
(§2) Experimental results were expressed as a percent of control specific binding, via the equation: […]
(§3) For each target, data from two experimental replicates were averaged to generate a mean % inhibition.

[2] = target: T2, Human recombinant dopamine D2L receptor (Homo sapiens, UniProt P14416); assay: D2L receptor radioligand binding inhibition ([3H]Spiperone); details: for inhibition at 10 µM: screened at 10 μM, mean of two replicates
T2 construct: expressed in transfected cells; host or cells: CHO
Method: as §1
Human recombinant dopamine D2L receptor expressed in CHO cells were used in modified Tris-HCl buffer pH 7.4. A 20 μg aliquot was incubated with 0.16 nM [^3H]Spiperone for 120 minutes at 25° C. Non-specific binding was estimated in the presence of 10 μM haloperidol. Receptor proteins were filtered and washed, the filters were then counted to determine [^3H]Spiperone specifically bound. Test compounds were screened at 10 μM.
as §2, §3

[3] = target: T3, Human recombinant serotonin 5-HT2B receptor (Homo sapiens, UniProt P41595); assay: 5-HT2B receptor radioligand binding inhibition ([3H]LSD); details: for inhibition at 10 µM: screened at 10 μM, mean of two replicates
T3 construct: expressed in transfected cells; host or cells: CHO-K1
Method: as §1
Human recombinant serotonin 5-HT2B receptor expressed in CHO-K1 cells were used to prepare membranes in modified Tris-HCl buffer pH 7.4. A 30 μg aliquot of membrane protein was incubated with 1.2 nM [^3H]LSD for 60 minutes at 37° C. Non-specific binding was estimated in the presence of 10 μM serotonin. Membranes were filtered and washed, the filters were then counted to determine [^3H]LSD specifically bound. Test compounds were screened at 10 μM.
as §2, §3

[4] = target: T4, human recombinant serotonin 5-HT2c receptors (Homo sapiens, UniProt P28335); assay: 5-HT2C receptor radioligand binding inhibition ([3H]Mesulergine); details: for inhibition at 10 µM: screened at 10 μM, mean of two replicates; for interaction at 5-HT2C receptor, in words: 10 μM, % inhibition greater than 50% interpreted as potentially significant interaction
T4 construct: expressed in transfected cells; host or cells: CHO-K1 (stably transfected)
T4 sequence (P28335 33-458): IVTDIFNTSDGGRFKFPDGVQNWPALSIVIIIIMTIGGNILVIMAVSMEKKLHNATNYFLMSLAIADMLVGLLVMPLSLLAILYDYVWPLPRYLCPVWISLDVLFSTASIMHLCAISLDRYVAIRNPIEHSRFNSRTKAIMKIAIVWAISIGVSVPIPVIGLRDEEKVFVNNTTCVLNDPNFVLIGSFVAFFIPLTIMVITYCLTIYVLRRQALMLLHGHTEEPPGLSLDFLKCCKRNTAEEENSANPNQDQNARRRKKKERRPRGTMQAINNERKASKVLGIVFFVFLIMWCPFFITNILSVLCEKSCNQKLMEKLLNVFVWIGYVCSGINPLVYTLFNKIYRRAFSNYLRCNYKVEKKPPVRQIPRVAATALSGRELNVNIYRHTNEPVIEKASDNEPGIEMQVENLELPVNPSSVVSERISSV
Method: as §1
CHO-K1 cells stably transfected with a plasmid encoding the human recombinant serotonin 5-HT2c receptors were used to prepare membranes in modified Tris-HCl buffer pH 7.4. A 3.2 μg aliquot of membrane protein was incubated with 1.0 nM [^3H]Mesulergine for 60 minutes at 25° C. Non-specific binding was estimated in the presence of 1 μM Mianserin. Membranes were filtered and washed, the filters were then counted to determine [^3H]Mesulergine specifically bound. Test compounds were screened at 10 μM.
as §2, §3

[5] = target: T5, Human recombinant dopamine D3 receptors (Homo sapiens, UniProt P35462); assay: D3 receptor radioligand binding inhibition ([3H]Spiperone); details: for inhibition at 10 µM: screened at 10 μM, mean of two replicates
T5 construct: expressed in transfected cells; host or cells: CHO
Method: as §1
Human recombinant dopamine D3 receptors expressed in CHO cells were used in modified Tris-HCl buffer pH 7.4. A 10 μg aliquot was incubated with 0.7 nM [^3H]Spiperone for 120 minutes at 37° C. Non-specific binding was estimated in the presence of 25 μM S(−)-sulpiride. Receptors were filtered and washed, the filters were then counted to determine [^3H]Spiperone specifically bound. Test compounds were screened at 10 μM.
as §2, §3

[6] = target: T6, Human recombinant adenosine A2A receptors (Homo sapiens, UniProt P29274); assay: A2A receptor radioligand binding inhibition ([3H]CGS-21680); details: for inhibition at 10 µM: screened at 10 μM, mean of two replicates; for interaction at A2A receptor, in words: 10 μM, % inhibition greater than 50% interpreted as potentially significant interaction
T6 construct: expressed in transfected cells; host or cells: HEK-293
Method: as §1
Human recombinant adenosine A2A receptors expressed in human HEK-293 cells were used in modified Tris-HCl buffer pH 7.4. A 15 μg aliquot was incubated with 50 nM [^3H]CGS-21680 for 90 minutes at 25° C. Non-specific binding was estimated in the presence of 50 μM NECA. Receptor were filtered and washed, the filters were then counted to determine [^3H]CGS-21680 specifically bound. Test compounds were screened at 10 μM.
as §2, §3

[7] = target: T7, Human recombinant serotonin 5-HT1A receptors (Homo sapiens, UniProt P08908); assay: 5-HT1A receptor radioligand binding inhibition ([3H]8-OH-DPAT); details: for inhibition at 10 µM: screened at 10 μM, mean of two replicates; for interaction at 5-HT1A receptor, in words: 10 μM, % inhibition greater than 50% interpreted as potentially significant interaction
T7 construct: expressed in transfected cells; host or cells: CHO-K1
T7 sequence (P08908 1-422): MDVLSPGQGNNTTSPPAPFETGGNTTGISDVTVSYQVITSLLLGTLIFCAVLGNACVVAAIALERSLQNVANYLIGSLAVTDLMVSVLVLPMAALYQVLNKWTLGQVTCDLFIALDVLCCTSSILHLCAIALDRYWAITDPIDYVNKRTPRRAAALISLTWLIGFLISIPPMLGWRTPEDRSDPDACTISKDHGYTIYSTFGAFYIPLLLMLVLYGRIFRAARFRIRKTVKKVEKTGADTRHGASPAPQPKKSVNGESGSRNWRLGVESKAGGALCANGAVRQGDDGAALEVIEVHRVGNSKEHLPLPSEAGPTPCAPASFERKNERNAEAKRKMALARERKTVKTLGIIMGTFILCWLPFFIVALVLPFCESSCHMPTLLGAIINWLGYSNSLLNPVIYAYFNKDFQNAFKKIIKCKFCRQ
Method: as §1
Human recombinant serotonin 5-HT1A receptors expressed in CHO-K1 cells were used in modified Tris-HCl buffer pH 7.4. An 8 μg aliquot of membrane protein was incubated with 1.5 nM [^3H]8-OH-DPAT for 60 minutes at 25° C. Non-specific binding was estimated in the presence of 10 μM metergoline. Receptors were filtered and washed, the filters were then counted to determine [^3H]8-OH-DPAT specifically bound. Test compounds were screened at 10 μM.
as §2, §3

[8] = target: T8, Human recombinant serotonin 5-HT2A receptors (Homo sapiens, UniProt P28223); assay: 5-HT2A receptor radioligand binding inhibition ([3H]Ketanserin); details: for inhibition at 10 µM: screened at 10 μM, mean of two replicates; for interaction at 5-HT2A receptor, in words: 10 μM, % inhibition greater than 50% interpreted as potentially significant interaction; for selectivity as ligand of the 5-HT2A receptor, in words: conclusion from % inhibition at 10 μM over ten receptors
T8 construct: expressed in transfected cells; host or cells: CHO-K1
Method: as §1
Human recombinant serotonin 5-HT2A receptors expressed in CHO-K1 cells were used in modified Tris-HCl buffer pH 7.4. A 30 μg aliquot of membrane protein was incubated with 0.5 nM [^3H]Ketanserin for 60 minutes at 25° C. Non-specific binding was estimated in the presence of 1 μM Mianserin. Receptors were filtered and washed, the filters were then counted to determine [^3H]Ketanserin specifically bound. Test compounds were screened at 10 μM.
as §2, §3

[9] = target: T9, Human recombinant dopamine D1 receptors (Homo sapiens, UniProt P21728); assay: D1 receptor radioligand binding inhibition ([3H]SCH-23390); details: for inhibition at 10 µM: screened at 10 μM, mean of two replicates
T9 construct: expressed in transfected cells; host or cells: CHO
Method: as §1
Human recombinant dopamine D1 receptors expressed in CHO cells were used in modified Tris-HCl buffer pH 7.4. A 20 μg aliquot was incubated with 1.4 nM [^3H]SCH-23390 for 120 minutes at 37° C. Non-specific binding was estimated in the presence of 10 μM (+)-butaclamol. Receptors were filtered and washed, the filters were then counted to determine [^3H]SCH-23390 specifically bound. Test compounds were screened at 10 μM.
as §2, §3

[10] = test system: human dopamine D4.7 receptor; assay: D4.7 receptor radioligand binding inhibition ([3H]Spiperone); details: for interaction at D4.7 receptor, in words: 10 μM, % inhibition greater than 50% interpreted as potentially significant interaction; for % inhibition, D4.7: screened at 10 μM, mean of two replicates
Method: as §1
CHO-K1 cells stably transfected with a plasmid encoding the human dopamine D4.7 receptor were used to prepare membranes in modified Tris-HCl buffer pH 7.4. A 60 μg aliquot of membrane was incubated with 1.5 nM [^3H]Spiperone for 120 minutes at 25° C. Non-specific binding was estimated in the presence of 10 μM haloperidol. Membranes were filtered and washed, the filters were then counted to determine [^3H]Spiperone specifically bound. Test compounds were screened at 10 μM.
as §2, §3

[11] = 10 μM, % inhibition greater than 50% interpreted as potentially significant interaction

T1 sequence (P14416 1-414 isoform P14416-2): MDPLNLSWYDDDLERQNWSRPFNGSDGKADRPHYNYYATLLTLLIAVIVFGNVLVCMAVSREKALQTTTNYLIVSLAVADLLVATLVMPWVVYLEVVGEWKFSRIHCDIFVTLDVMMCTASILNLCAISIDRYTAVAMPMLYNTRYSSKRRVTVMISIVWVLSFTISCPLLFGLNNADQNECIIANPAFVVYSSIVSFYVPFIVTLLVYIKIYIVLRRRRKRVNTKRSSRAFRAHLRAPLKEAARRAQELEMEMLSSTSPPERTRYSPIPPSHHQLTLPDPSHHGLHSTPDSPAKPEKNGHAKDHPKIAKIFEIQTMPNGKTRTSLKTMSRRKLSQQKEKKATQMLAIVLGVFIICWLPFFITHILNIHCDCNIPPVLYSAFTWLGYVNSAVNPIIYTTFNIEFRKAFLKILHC
T5 sequence (P35462 whole entry): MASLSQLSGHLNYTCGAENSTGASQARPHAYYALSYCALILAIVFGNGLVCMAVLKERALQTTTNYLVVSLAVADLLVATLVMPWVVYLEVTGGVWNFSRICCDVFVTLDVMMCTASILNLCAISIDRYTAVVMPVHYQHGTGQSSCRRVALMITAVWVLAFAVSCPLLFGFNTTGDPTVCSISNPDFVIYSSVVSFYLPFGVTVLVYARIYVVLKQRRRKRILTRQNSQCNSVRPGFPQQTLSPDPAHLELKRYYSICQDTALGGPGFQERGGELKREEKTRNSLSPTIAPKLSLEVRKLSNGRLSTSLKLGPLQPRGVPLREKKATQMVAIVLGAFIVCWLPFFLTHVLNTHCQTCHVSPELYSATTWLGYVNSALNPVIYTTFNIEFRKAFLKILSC
T9 sequence (P21728 whole entry): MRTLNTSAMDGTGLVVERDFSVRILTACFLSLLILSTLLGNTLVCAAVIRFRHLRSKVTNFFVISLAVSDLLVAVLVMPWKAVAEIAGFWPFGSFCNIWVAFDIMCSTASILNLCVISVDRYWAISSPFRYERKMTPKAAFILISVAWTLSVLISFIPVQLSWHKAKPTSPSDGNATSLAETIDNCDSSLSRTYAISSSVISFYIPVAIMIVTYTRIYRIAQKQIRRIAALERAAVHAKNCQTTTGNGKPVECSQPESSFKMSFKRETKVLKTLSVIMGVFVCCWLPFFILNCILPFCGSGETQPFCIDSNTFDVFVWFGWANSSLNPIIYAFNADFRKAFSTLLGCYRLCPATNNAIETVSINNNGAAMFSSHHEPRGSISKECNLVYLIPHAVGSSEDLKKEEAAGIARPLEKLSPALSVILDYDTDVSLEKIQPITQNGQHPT
T6 sequence (P29274 whole entry): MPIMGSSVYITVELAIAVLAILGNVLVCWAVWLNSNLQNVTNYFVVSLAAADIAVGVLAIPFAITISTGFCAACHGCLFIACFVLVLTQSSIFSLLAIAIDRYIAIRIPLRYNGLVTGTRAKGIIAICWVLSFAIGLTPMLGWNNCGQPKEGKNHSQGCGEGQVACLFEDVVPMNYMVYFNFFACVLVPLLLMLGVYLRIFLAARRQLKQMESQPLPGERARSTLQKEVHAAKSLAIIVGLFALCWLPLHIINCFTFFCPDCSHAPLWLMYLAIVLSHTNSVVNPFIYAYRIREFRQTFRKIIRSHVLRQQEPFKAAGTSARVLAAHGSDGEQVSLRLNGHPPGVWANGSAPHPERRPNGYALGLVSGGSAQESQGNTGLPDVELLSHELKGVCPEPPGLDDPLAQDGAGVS
T3 sequence (P41595 whole entry): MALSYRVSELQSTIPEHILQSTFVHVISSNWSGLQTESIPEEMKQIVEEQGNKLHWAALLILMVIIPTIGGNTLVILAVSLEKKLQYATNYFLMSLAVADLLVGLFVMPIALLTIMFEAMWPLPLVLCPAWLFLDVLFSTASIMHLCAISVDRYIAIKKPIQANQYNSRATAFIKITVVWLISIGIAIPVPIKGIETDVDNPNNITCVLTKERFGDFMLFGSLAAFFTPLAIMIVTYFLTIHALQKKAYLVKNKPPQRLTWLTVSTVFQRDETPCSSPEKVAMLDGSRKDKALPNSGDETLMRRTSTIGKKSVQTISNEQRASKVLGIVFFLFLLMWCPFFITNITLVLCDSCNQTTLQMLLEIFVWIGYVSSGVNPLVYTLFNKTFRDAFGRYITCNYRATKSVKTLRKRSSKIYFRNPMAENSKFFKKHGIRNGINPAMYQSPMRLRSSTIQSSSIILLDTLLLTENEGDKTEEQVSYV
T8 sequence (P28223 whole entry): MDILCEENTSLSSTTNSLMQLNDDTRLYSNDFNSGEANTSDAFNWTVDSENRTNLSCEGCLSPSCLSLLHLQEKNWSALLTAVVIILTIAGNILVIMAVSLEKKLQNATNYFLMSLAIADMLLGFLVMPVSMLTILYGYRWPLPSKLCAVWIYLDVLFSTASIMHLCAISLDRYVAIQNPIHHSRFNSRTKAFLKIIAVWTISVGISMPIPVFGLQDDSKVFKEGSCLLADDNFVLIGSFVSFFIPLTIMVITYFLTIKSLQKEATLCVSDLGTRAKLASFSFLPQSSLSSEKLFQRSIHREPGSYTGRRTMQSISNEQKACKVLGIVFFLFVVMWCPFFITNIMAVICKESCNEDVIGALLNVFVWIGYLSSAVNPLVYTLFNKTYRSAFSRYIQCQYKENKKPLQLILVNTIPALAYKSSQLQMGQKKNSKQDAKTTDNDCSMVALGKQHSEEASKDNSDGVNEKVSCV
T2 sequence (P14416 whole entry): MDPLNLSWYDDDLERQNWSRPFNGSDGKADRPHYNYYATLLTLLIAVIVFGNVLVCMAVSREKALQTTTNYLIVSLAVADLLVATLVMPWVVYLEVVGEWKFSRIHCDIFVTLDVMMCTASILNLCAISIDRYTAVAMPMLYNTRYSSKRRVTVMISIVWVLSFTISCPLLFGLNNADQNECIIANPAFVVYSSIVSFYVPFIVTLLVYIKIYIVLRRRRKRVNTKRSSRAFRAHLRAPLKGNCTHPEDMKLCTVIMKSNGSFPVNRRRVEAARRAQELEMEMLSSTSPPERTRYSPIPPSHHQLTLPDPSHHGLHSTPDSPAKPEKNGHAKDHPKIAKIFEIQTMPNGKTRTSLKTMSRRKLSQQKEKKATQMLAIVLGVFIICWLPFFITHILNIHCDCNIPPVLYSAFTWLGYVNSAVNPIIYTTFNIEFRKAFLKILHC

Compound | inhibition at 10 µM [1] [%] | inhibition at 10 µM [2] [%] | inhibition at 10 µM [3] [%] | inhibition at 10 µM [4] [%] | inhibition at 10 µM [5] [%] | inhibition at 10 µM [6] [%] | inhibition at 10 µM [7] [%] | inhibition at 10 µM [8] [%] | inhibition at 10 µM [9] [%] | interaction at D4.7 receptor, in words [10] | % inhibition, D4.7 [10] [%] | interaction at 5-HT2C receptor, in words [4] | interaction at A2A receptor, in words [6] | interaction at 5-HT1A receptor, in words [7] | interaction at 5-HT2A receptor, in words [8] | selectivity as ligand of the 5-HT2A receptor, in words [8] | further results
CN1CC(C(=O)N2CC3(COC3)C2)C=C2c3cccc4[nH]cc(c34)CC21 (centres unmarked) [Compound 1, 2-oxa-6-azaspiro[3.3]heptyl-lysergic acid amide] | 83.1 | 78.8 | 96.8 | 85.8 | 94.5 | -12.3 | 96.3 | 95.3 | 85.6 | – | – | – | – | – | – | – | –
CN1CC(C(=O)NCC(F)(F)F)C=C2c3cccc4[nH]cc(c34)CC21 (centres unmarked) [Compound 3, lysergic acid mono-(trifluoroethyl)amide] | 64.2 | 63.1 | 94.9 | 89.4 | 94.7 | -2 | 101 | 93.1 | 53.8 | no significant interaction | 20.1 | significant interaction | no significant interaction | significant interaction | significant interaction | advantageously selective ligands of the 5-HT2A receptor | interaction at 5-HT2B receptor, in words [3, 11]: significant interaction; D3 % inhibition compared with other dopamine receptors, in words ([5]; 10 μM, may indicate greater selectivity for D3): higher % inhibition than at other dopamine receptors
CCN(CCF)C(=O)C1C=C2c3cccc4[nH]cc(c34)CC2N(C)C1 (centres unmarked) [Compound 4, lysergic acid monofluoro diethylamide] | 92.1 | 92.7 | 97.9 | 100 | 97.7 | 12.3 | 100 | 97.1 | 97.1 | – | 71.6 | – | no significant interaction | – | – | advantageously selective ligands of the 5-HT2A receptor | –
CCN(CC)C(=O)C1C=C2c3cccc4[nH]cc(c34)CC2N(CCF)C1 (centres unmarked) [Compound 2, 6-(2-mono-fluoro-ethyl)-6-nor-lysergic acid diethylamide] | 0.6 | 7.9 | 90.5 | 4.8 | 14.2 | -2.5 | 100 | 95.7 | 4.3 | no significant interaction | 2.8 | no significant interaction | no significant interaction | very high % inhibition | very high % inhibition | advantageously selective ligands of the 5-HT2A receptor | interaction at D2S receptor, in words [1, 11]: no significant interaction; interaction at D2L receptor, in words [2, 11]: no significant interaction; interaction at D3 receptor, in words [5, 11]: no significant interaction; interaction at D1 receptor, in words [9, 11]: no significant interaction
